Test results from patent publication US20160186196A1 (priority 2009, published 2016).

Tests used:
Assay type in all cases: cell-based, Chlamydomonas reinhardtii
[1] = system: C. reinhardtii UTEX 2244 and transformants; assay: Rose Bengal photooxidative stress kill curves in liquid culture; conditions: 2 μM Rose Bengal, within the first five hours of exposure
Description: Exposure of C. reinhardtii to Rose Bengal was performed as follows. In order to induce apoptosis in C. reinhardtii by the mechanism of photooxidative stress, algal cells were grown on solid medium containing various concentrations of the photosensitizing dye Rose Bengal as described in Fischer et al. (Plant Sci, 168:747-759 (2005)). Duplicate plates with RB levels as high as up to 2.0 μM were initially spread with 1×10^3 cells and resulting colonies were counted after a: period of one week. UTEX 2244 was used as a control. Cell viability is reported as a percentage of surviving cells. Additionally, kill curves were conducted in liquid culture using 100-ml stirrer flasks under the same cultivation conditions mentioned previously, with the exception of aeration. Each culture was seeded with an inoculum of exponentially growing cells (1×10^6 cells ml^−1) and the cell density was measured with a Zeiss Axiovert™ 100 inverted light microscope using a hemocytometer over a one-week period. In the experimental flasks, 100x RB dissolved in isopropanol stock solution was added three days after inoculation to cultures of approximately 0.2×10^6 cells ml^−1 in order achieve a final concentration of 2.0 μM; control flasks were unaltered.

[2] = system: C. reinhardtii UTEX 2244; assay: Minimum inhibitory bleocin concentration on solid medium, wild-type cells
Description: (§1) Exposure of C. reinhardtii to antibiotic selective pressure was performed as follows. In order to test the efficacy of the antibiotic bleocin (EMD Biosciences) on C. reinhardtii UTEX 2244, algal cells were grown on solid medium containing various concentrations of this selective agent—0, 0.25, 0.5, 1.0, 2.0, 4.0, 6.0, and 8.0 mg L^−1. Duplicate plates were initially spread with either 1×10^3 or 5×10^7 wild-type cells and the cultures' viability was examined over a period of two weeks. Once stable transformants were obtained, this experiment was repeated with a mixed population of wild-type and bleomycin-resistant cells (5×10^7:1×10^3) to verify the emergence of individual colonies from the surrounding lawn of algal cells.

[3] = system: bleomycin-resistant C. reinhardtii stable transformants; assay: Bleocin kill curves on solid medium, mixed population of wild-type and bleomycin-resistant cells; conditions: mixed population wild-type:bleomycin-resistant cells 5×10^7:1×10^3, solid medium, two weeks
Description: as §1

Molecule | effect on cell populations [1] | minimum inhibitory concentration (M.I.C.) to eradicate the entire population ([2]; high density lawn, 5×10^7 cells per plate, two-week incubation) | concentration sufficient to completely inhibit growth (absence of colony formation) ([2]; low density, 1,000 cells per plate, solid medium) [mg/L] | concentration giving widespread cell death ([2]; within only four days of exposure) | bleocin concentration in which some stable transformants were able to survive [3] [mg/L]
O=C([O-])c1c(Cl)c(Cl)c(Cl)c(Cl)c1-c1c2cc(I)c(=O)c(I)c-2oc2c(I)c([O-])c(I)cc12.[Na+].[Na+] [Rose Bengal] | all populations experienced some cell death |  |  |  | 
bleocin |  | at least 1 mg L^−1 | 0.25 | more than 4 mg L^−1 | ≤ 8
